Source: patent US20260250290A1 (BRISTOL-MYERS SQUIBB COMPANY, priority 2023, published 2026)
Structures can show the parent of a compound that is named as a salt.

Molecular target: T1, SGK1 (Homo sapiens, UniProt O00141)
T1 sequence (O00141 1-431): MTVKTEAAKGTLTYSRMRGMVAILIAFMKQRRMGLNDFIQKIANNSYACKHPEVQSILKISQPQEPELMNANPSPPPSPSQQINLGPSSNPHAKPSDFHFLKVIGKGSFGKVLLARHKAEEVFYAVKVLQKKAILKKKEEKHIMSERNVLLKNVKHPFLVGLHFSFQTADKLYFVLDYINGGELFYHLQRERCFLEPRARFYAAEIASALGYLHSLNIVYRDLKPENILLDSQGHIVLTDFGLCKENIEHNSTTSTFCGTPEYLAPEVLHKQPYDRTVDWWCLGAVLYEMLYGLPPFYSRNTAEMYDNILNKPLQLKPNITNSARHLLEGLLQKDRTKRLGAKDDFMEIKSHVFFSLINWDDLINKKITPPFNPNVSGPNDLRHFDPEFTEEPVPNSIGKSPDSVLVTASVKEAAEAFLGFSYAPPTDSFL
Experiment: SGK1 inhibition Assay B (Echo mass spectrometry of phosphorylated peptide product)
Format: biochemical
Details: 60 min at room temperature

Row | IC50 [nM] | Compound
1 | 1.1 | COC[C@@H](C)NC1CCC(Oc2nc(C)sc2C(=O)N[C@@H]2CCCN(c3cc(C4=CC(=O)OC4)n4ncnc(N)c34)C2)CC1 (stereo partly drawn) [Example 996, N—((R)-1-(4-amino-7-(5-oxo-2,5-dihydrofuran-3-yl)pyrrolo[2,1-f][1,2,4]triazin-5-yl)piperidin-3-yl)-4-((4-(((R)-1-methoxypropan-2-yl)amino)cyclohexyl)oxy)-2-methylthiazole-5-carboxamide]
2 | 0.6 | Nc1ncnn2c(-c3ccc(-n4cnnn4)c(F)c3)cc(N3CCC[C@@H](NC(=O)c4sc(Cl)cc4OC4CC5CC4CN5C4COC4)C3)c12 (stereo partly drawn) [Example 994, N—((R)-1-(4-amino-7-(3-fluoro-4-(1H-tetrazol-1-yl)phenyl)pyrrolo[2,1-f][1,2,4]triazin-5-yl)piperidin-3-yl)-5-chloro-3-((2-(oxetan-3-yl)-2-azabicyclo[2.2.1]heptan-5-yl)oxy)thiophene-2-carboxamide]
3 | 16 | CN1CCN(c2nccc(C(=O)N[C@@H]3CCCN(c4cc(-c5cnc(-n6cnnn6)nc5)n5ncnc(N)c45)C3)n2)CC1 [Example 856, (R)-N-(1-(7-(2-(1H-tetrazol-1-yl)pyrimidin-5-yl)-4-aminopyrrolo[2,1-f][1,2,4]triazin-5-yl)piperidin-3-yl)-2-(4-methylpiperazin-1-yl)pyrimidine-4-carboxamide]
4 | 14 | COC(=O)N1CC=C(c2cc(N3CCC[C@@H](NC(=O)c4sc(C)nc4OC4CCN(C)CC4)C3)c3c(N)ncnn23)C1 [Example 360, Methyl (R)-3-(4-amino-5-(3-(2-methyl-4-((1-methylpiperidin-4-yl)oxy)thiazole-5-carboxamido)piperidin-1-yl)pyrrolo[2,1-f][1,2,4]triazin-7-yl)-2,5-dihydro-1H-pyrrole-1-carboxylate]
5 | 2 | CC(=O)c1ccc(-c2cc(N3CCC[C@@H](NC(=O)c4sc(Cl)cc4O[C@@H]4C[C@H]5CC[C@@H](C4)N5C)C3)c3c(N)ncnn23)cn1 [Example 838, N-((R)-1-(7-(6-acetylpyridin-3-yl)-4-aminopyrrolo[2,1-f][1,2,4]triazin-5-yl)piperidin-3-yl)-5-chloro-3-(((1R,3s,5S)-8-methyl-8-azabicyclo[3.2.1]octan-3-yl)oxy)thiophene-2-carboxamide]
6 | 0.4 | CN1[C@@H]2CC[C@H]1C[C@H](Oc1cc(Cl)sc1C(=O)N[C@@H]1C[C@@H](F)CN(c3cc(-c4ccc(-n5cnnn5)c(F)c4)n4ncnc(N)c34)C1)C2 [Example 925, N-((3R,5R)-1-(4-amino-7-(3-fluoro-4-(1H-tetrazol-1-yl)phenyl)pyrrolo[2,1-f][1,2,4]triazin-5-yl)-5-fluoropiperidin-3-yl)-5-chloro-3-(((1R,3s,5S)-8-methyl-8-azabicyclo[3.2.1]octan-3-yl)oxy)thiophene-2-carboxamide, TFA salt]
7 | 0.8 | CN1CC2CCC1CC2Oc1cc(Cl)sc1C(=O)N[C@@H]1CCCN(c2cc(-c3ccc(=O)n(CC(F)F)c3)n3ncnc(N)c23)C1 (stereo partly drawn) [Example 991, N—((R)-1-(4-amino-7-(1-(2,2-difluoroethyl)-6-oxo-1,6-dihydropyridin-3-yl)pyrrolo[2,1-f][1,2,4]triazin-5-yl)piperidin-3-yl)-5-chloro-3-((2-methyl-2-azabicyclo[2.2.2]octan-5-yl)oxy)thiophene-2-carboxamide]
8 | 0.5 | Cc1nc(O[C@H]2CC[C@]3(CCCN3C)CC2)c(C(=O)N[C@@H]2CCCN(c3cc(-c4ccc(C(N)=O)c(F)c4)n4ncnc(N)c34)C2)s1 [Example 931, N—((R)-1-(4-amino-7-(4-carbamoyl-3-fluorophenyl)pyrrolo[2,1-f][1,2,4]triazin-5-yl)piperidin-3-yl)-2-methyl-4-(((5S,8r)-1-methyl-1-azaspiro[4.5]decan-8-yl)oxy)thiazole-5-carboxamide, TFA salt]

The remaining lines, values behind:

Row | Compound | IC50 [nM]
9 | CCC1=C(c2cc(N3CCC[C@@H](NC(=O)c4sc(C)nc4OC4CCC(N[C@@H](C)COC)CC4)C3)c3c(N)ncnn23)COC1=O (single isomer, unassigned) [Example 1023] | 0.8
10 | Cc1nnnn1-c1ccc(-c2cc(N3CCC[C@@H](NC(=O)c4cccc(N5CC6(C5)CN(C(C)C)C6)n4)C3)c3c(N)ncnn23)cc1 [Example 829, (R)-N-(1-(4-amino-7-(4-(5-methyl-1H-tetrazol-1-yl)phenyl)pyrrolo[2,1-f][1,2,4]triazin-5-yl)piperidin-3-yl)-6-(6-isopropyl-2,6-diazaspiro[3.3]heptan-2-yl)picolinamide] | 2
11 | CCOC1=C(C(=O)N[C@@H]2CCCN(c3cc(C4=CCN(C(C)=O)C4)n4ncnc(N)c34)C2)CN(CC(F)(F)F)C1=O [Example 759, (R)-N-(1-(7-(1-acetyl-2,5-dihydro-1H-pyrrol-3-yl)-4-aminopyrrolo[2,1-f][1,2,4]triazin-5-yl)piperidin-3-yl)-4-ethoxy-5-oxo-1-(2,2,2-trifluoroethyl)-2,5-dihydro-1H-pyrrole-3-carboxamide] | 887
12 | Cc1nc(O[C@@H]2C[C@H]3CC[C@@H](C2)N3C)c(C(=O)N[C@@H]2CCCN(c3cc(-c4ccc(-n5cnnn5)nc4)n4ncnc(N)c34)C2)s1 [Example 963, N-((R)-1-(7-(6-(1/-tetrazol-1-y1)pyridin-3-y1)-4-aminopyrrolo[2,1-1][1,2,4]triazin-5-y1)piperidin-3-y1)-2-methyl-4-(((IR,35,5S)-8-methy1-8-azabicyclo[3.2 1]octan-3-yl)oxy)thiazole-5-carboxamide] | 3
13 | CC(C)N1CC2(CN(c3cccc(C(=O)N[C@@H]4CCCN(c5cc(-c6ccc7cnn(C)c7c6)n6ncnc(N)c56)C4)n3)C2)C1 [Example 821, (R)-N-(1-(4-amino-7-(1-methyl-1H-indazol-6-yl)pyrrolo[2,1-f][1,2,4]triazin-5-yl)piperidin-3-yl)-6-(6-isopropyl-2,6-diazaspiro[3.3]heptan-2-yl)picolinamide] | 69
14 | Cc1nc(OC2CCC(N3CCC3)CC2)c(C(=O)N[C@@H]2CCCN(c3cc(-c4csc(C(N)=O)n4)n4ncnc(N)c34)C2)s1 (stereo partly drawn) [Example 1050, (R)-4-(4-amino-5-(3-(4-((4-(azetidin-1-yl)cyclohexyl)oxy)-2-methylthiazole-5-carboxamido)piperidin-1-yl)pyrrolo[2,1-f][1,2,4]triazin-7-yl)thiazole-2-carboxamide] | 0.6
15 | CC(=O)N1CC=C(c2cc(N3CCC[C@@H](NC(=O)c4sc(Cl)cc4OCC(C)(C)O)C3)c3c(N)ncnn23)C1 [Example 921, (R)—N-(1-(7-(1-acetyl-2,5-dihydro-1H-pyrrol-3-yl)-4-aminopyrrolo[2,1-f][1,2,4]triazin-5-yl)piperidin-3-yl)-5-chloro-3-(2-hydroxy-2-methylpropoxythiophene-2-carboxamide TFA salt] | 7
16 | Cc1nc(OC2CC3(CCN(C)CC3)C2)c(C(=O)N[C@@H]2CCCN(c3cc(-c4ccc(C#N)nc4)n4ncnc(N)c34)C2)s1 [Example 955, (R)—N-(1-(4-amino-7-(6-cyanopyridin-3-yl)pyrrolo[2,1-f][1,2,4]triazin-5-yl)piperidin-3-yl)-2-methyl-4-((7-methyl-7-azaspiro[3.5]nonan-2-yl)oxy)thiazole-5-carboxamide] | 17
17 | CC(C)N1CC2(CN(c3cccc(C(=O)N[C@@H]4CCCN(c5cc(-c6ccc(S(C)(=O)=O)c(F)c6)n6ncnc(N)c56)C4)n3)C2)C1 [Example 833, (R)-N-(1-(4-amino-7-(3-fluoro-4-(methylsulfonyl)phenyl)pyrrolo[2,1-f][1,2,4]triazin-5-yl)piperidin-3-yl)-6-(6-isopropyl-2,6-diazaspiro[3.3]heptan-2-yl)picolinamide] | 9
